The subject of one data set is guinea pig brain slices. The note with it: cited from earlier work.
For the next data set, the system named is anesthetized rats. The note with it: cited from earlier work.
The subject of a further data set is isolated rat hearts. As to conditions: perfused with the compound alone; normoxic, hypoxic, anoxic or ischemic conditions; cited from earlier work.
Another data set concerns rat brain slices. The note with it: cited from earlier work.
The test system of a further data set is mice. As to conditions: cited from earlier work.
For the next data set, the system named is dog hearts. As to conditions: cited from earlier work.
Another data set has as its system rat cardiomyocytes. The note with it: inhibition of ADA together with adenosine kinase; cited from earlier work.
Data set [1] has as its system Isolated guinea pig hearts. As to conditions: added to the perfusion medium in the presence of EHNA; cited from earlier work.
For the next data set, the system named is rats. As to the kind of experiment: Electroshock-induced seizures. It is filed as in vivo. The note with it: for No. of Animals (protected/tested): 1 hour before electroshock. The procedure:
The ability of the adenosine kinase inhibitors to influence electroshock-induced seizures was also evaluated in an experimental model.
After 1 hour, corneal electrodes were applied to the eyes of each animal and an electrical stimulus of 160 mA delivered for 0.2 seconds. Animals were isolated in separate cages and observed for seizure. Abolition of the hindleg tonic extensor component is taken as the end point for this test and reflects ability of the compound to prevent seizure spread.

Another data set concerns Male Swiss Webster mice. Put plainly: PTZ-induced seizures. The format is in vivo. As to conditions: IP at doses of 1, 5 and 10 mg/kg, 45 minutes before PTZ; Figure 4 A. The procedure: The ability of selected adenosine kinase inhibitors to influence PTZ-induced seizures was evaluated in an experimental animal model.
[…] After injections of the convulsant, animals were isolated in separate cages and observed for the onset of seizure.

The subject of data set [2] is human umbillical vein endothelial cells. Put plainly: Inhibition of neutrophil adherence to endothelial cells. It is filed as cell-based. As to conditions: fMLP-stimulated human neutrophils, 2 hours at 37°C; reversed by adenosine deaminase; Figure 2. The method, then: The ability of an adenosine kinase inhibitor to affect neutrophil adherence to fibroblasts and endothelial cells was evaluated in a cell culture model.
These incubations were carried out in the presence of fMLP-stimulated human neutrophils isolated from whole blood (1.25 x 10^6/ml) with or without adenosine deaminase (0.125 U/ml). At the end of the incubation, the medium was removed and the monolayers of fibroblasts or endothelial cells and adherent neutrophils were fixed by addition of formaldehyde (3.7%) and, after washing to remove non-adherent neutrophils, adherent neutrophils were stained with Weigart's hematoxylin and counted under a light microscope.

As to `Nc1ncnc2c1c(I)cn2[C@@H]1O[C@H](CO)[C@@H](O)[C@H]1O` [5-iodotubercidin, reference compound], the adenosine uptake entry in the data set on guinea pig brain slices is “inhibited”. Also, the “blood pressure and heart rate” value in the data set with anesthetized rats is “decrease blood pressure and heart rate”. Moreover, in the data set with isolated rat hearts, the perfusate adenosine concentration entry is reported as “no increase in perfusate adenosine concentration”. Moreover, the adenosine uptake result in the data set on rat brain slices was “inhibited”. Also, in the data set on mice, the body temperature result was “hypothermia”; the “flaccidity and spontaneous locomotor activity” value is “pronounced general flaccidity and much-reduced spontaneous locomotor activity”. Moreover, the “effects in ischemia and reperfusion” value with dog hearts is recorded as “inconsistent effects”.
`NC[C@H]1O[C@@H](n2cnc3c(N)ncnc32)[C@H](O)[C@@H]1O` [GP-1-238, 5'-amino-5'-deoxyadenosine]: the “increase in adenosine release” value with rat cardiomyocytes is on record as 6 fold. The “increase of adenosine release” value in data set [1] is reported as 15 fold.
The term ED50 denotes the midpoint of the dose-response relation. Regarding `C[C@H]1O[C@@H](n2cc(I)c3c(N)ncnc32)[C@H](O)[C@@H]1O` [GP-1-456, 5'-deoxy-5-iodotubercidin], the adenosine uptake entry with guinea pig brain slices and with rat brain slices was “inhibited” in each case. The “blood pressure and heart rate” value with anesthetized rats is “decrease blood pressure and heart rate”. For the same molecule, the “No. of Animals (protected/tested)” value with rats (0.05 mg/kg orally) is 1/8; in the data set with rats (0.10 mg/kg orally), 2/8. Moreover, in the data set with rats (Rattus norvegicus, po, 1 h, orally, rats, from the data of Table E, read-out: ED50 for protection of electroshock-induced seizures), the ED50 is 0.18 mg/kg. Besides, the PTZ induced seizures entry in the data set on Male Swiss Webster mice is “dose-dependent inhibition”. Besides, the body temperature result in the data set with mice is on record as “hypothermia”. Moreover, the “flaccidity and spontaneous locomotor activity” value with mice is “pronounced general flaccidity and much-reduced spontaneous locomotor activity”. The “neutrophil adhesion to endothelial cells” value in [2] is given as “inhibit neutrophil adhesion to endothelial cells”.
